Target: T1, ΔF508-CFTR (Homo sapiens, UniProt P13569, DEL508-508)
T1 construct: expressed in transfected cells
Assay: Membrane potential optical (FRET/VIPR) assay, identification of potentiator compounds
Assay type: cell-based
Details: Table 3, assay not given; for % Activity: relative efficacy
Source text: I) Membrane Potential Optical Methods for Assaying ΔF508-CFTR Modulation Properties of Compounds The optical membrane potential assay utilized voltage-sensitive FRET sensors described by Gonzalez and Tsien (See, Gonzalez, J. E. and R. Y. Tsien (1995) “Voltage sensing by fluorescence resonance energy transfer in single cells” Biophys J 69(4): 1272-80, and Gonzalez, J. E. and R. Y. Tsien (1997) “Improved indicators of cell membrane potential that use fluorescence resonance energy transfer” Chem Biol 4(4): 269-77) in combination with instrumentation for measuring fluorescence changes such as the Voltage/Ion Probe Reader (VIPR) (See, […]. Oades, et al. (1999) “Cell-based assays and instrumentation for screening ion-channel targets” Drug Discov Today 4(9): 431-439). These voltage sensitive assays are based on the change in fluorescence resonant energy transfer (FRET) between the membrane-soluble, voltage-sensitive dye, DiSBAC2(3), and a fluorescent phospholipid, CC2-DMPE, which is attached to the outer leaflet of the plasma membrane and acts as a FRET donor. Changes in membrane potential (Vm) cause the negatively charged DiSBAC2(3) to redistribute across the plasma membrane and the amount of energy transfer from CC2-DMPE changes accordingly. The changes in fluorescence emission were monitored using VIPR which is an integrated liquid handler and fluorescent detector designed to conduct cell-based screens in 96- or 384-well microtiter plates. To identify potentiators of ΔF508-CFTR, a double-addition HTS assay format was developed. During the first addition, a Cl^--free medium with or without test compound was added to each well. […] (in mM) NaCl 160, KCl 4.5, CaCl2 2, MgCl2 1, HEPES 10, pH 7.4 with NaOH. • Chloride-free bath solution: Chloride salts in Bath Solution #1 are substituted with gluconate salts. • CC2-DMPE: Prepared as a 10 mM stock solution in DMSO and stored at -20° C. • DiSBAC2(3): Prepared as a 10 mM stock in DMSO and stored at -20° C. NIH3T3 mouse fibroblasts stably expressing ΔF508-CFTR are used for optical measurements of membrane potential. […] For all optical assays, the cells were seeded at 30,000/well in 384-well matrigel-coated plates and cultured for 2 hrs at 37° C. before culturing at 27° C. for 24 hrs. for the potentiator assay.

T1 sequence (P13569 with tags, fused parts or gaps DEL508-508): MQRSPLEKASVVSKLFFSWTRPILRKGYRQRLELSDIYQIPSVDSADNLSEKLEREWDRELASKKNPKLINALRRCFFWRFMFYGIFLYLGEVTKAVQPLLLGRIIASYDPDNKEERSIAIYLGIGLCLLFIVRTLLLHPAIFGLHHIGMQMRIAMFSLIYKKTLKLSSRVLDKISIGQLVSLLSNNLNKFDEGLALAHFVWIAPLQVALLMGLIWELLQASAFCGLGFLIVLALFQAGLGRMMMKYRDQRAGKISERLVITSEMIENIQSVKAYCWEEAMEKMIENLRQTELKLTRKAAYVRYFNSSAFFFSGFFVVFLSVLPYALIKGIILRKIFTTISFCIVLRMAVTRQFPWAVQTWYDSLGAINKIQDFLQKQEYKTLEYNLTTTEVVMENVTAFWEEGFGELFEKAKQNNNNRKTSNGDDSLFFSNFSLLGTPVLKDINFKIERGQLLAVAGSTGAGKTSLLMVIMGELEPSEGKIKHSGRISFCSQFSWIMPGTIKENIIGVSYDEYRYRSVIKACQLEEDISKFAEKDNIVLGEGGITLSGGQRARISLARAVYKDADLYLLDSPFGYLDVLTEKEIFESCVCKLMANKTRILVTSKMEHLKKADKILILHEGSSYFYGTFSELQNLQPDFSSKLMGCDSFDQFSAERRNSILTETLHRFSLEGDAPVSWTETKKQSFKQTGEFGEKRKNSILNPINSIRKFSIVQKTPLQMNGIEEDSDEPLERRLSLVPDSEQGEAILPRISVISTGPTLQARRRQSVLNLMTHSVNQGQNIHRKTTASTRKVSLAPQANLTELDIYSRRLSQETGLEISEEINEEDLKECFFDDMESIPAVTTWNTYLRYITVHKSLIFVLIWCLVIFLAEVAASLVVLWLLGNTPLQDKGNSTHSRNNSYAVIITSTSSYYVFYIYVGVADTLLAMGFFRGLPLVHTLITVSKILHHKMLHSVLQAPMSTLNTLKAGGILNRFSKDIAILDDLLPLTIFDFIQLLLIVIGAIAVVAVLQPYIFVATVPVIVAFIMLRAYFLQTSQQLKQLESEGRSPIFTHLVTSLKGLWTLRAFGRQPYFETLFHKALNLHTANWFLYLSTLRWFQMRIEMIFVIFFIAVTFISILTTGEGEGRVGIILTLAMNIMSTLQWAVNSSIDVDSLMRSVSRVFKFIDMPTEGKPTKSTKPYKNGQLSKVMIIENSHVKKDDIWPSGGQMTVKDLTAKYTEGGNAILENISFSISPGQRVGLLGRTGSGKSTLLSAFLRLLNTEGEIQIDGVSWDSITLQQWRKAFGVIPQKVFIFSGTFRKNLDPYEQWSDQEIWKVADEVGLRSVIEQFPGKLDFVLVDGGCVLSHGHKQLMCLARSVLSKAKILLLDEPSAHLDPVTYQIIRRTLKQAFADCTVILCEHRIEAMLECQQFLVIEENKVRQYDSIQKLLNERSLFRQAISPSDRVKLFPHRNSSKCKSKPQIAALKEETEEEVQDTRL

Row | Compound | EC50 [µM] | % Activity
1 | CC1(C)CCCNc2cc(NC(=O)c3c[nH]c4ccccc4c3=O)ccc21 [Compound 35, 1,4-dihydro-N-(2,3,4,5-tetrahydro-5,5-dimethyl-1H-benzo[b]azepin-8-yl)-4-oxoquinoline-3-carboxamide] | < 10 | ++ (between 25% to 100%)
2 | COC(=O)Nc1ccc(C(C)C)c(NC(=O)c2c[nH]c3ccccc3c2=O)c1 [Compound 239, [4-isopropyl-3-[(4-oxo-1H-quinolin-3-yl)carbonylamino]phenyl]aminoformic acid methyl ester] | < 10 | ++ (between 25% to 100%)
3 | CC(C)(C)c1cc2cc[nH]c2cc1NC(=O)c1c[nH]c2ccc(F)cc2c1=O [Compound 124, 6-fluoro-4-oxo-N-(5-tert-butyl-1H-indol-6-yl)-1H-quinoline-3-carboxamide] | < 10 | +++ (>100%)
4 | CCc1cc(Br)ccc1NC(=O)c1c[nH]c2ccccc2c1=O [Compound 263, N-(4-bromo-2-ethyl-phenyl)-4-oxo-1H-quinoline-3-carboxamide] | < 10 | ++ (between 25% to 100%)
5 | O=C(Nc1ccc(-c2ccccc2CNC(=O)C(F)(F)F)cc1)c1c[nH]c2ccccc2c1=O [Compound 224, 4-oxo-N-[4-[2-[(2,2,2-trifluoroacetyl)aminomethyl]phenyl]phenyl]-1H-quinoline-3-carboxamide] | < 10 | ++ (between 25% to 100%)
6 | O=C(Nc1ccccc1)c1c[nH]c2ccccc2c1=O [Compound 215, 4-Oxo-N-phenyl-1H-quinoline-3-carboxamide] | < 10 | ++ (between 25% to 100%)
7 | CC1CCN(S(=O)(=O)c2ccc3[nH]cc(C(=O)Nc4cc5[nH]ccc5cc4C(C)(C)C)c(=O)c3c2)CC1 [Compound 51, 6-[(4-methyl-1-piperidyl)sulfonyl]-4-oxo-N-(5-tert-butyl-1H-indol-6-yl)-1H-quinoline-3-carboxamide] | < 10 | ++ (between 25% to 100%)
8 | CC1(C)CCOc2cc(NC(=O)c3c[nH]c4ccccc4c3=O)ccc21 [Compound 204, N-(4,4-dimethylchroman-7-yl)-4-oxo-1H-quinoline-3-carboxamide] | < 10 | ++ (between 25% to 100%)
9 | CCCc1ccc(NC(=O)c2c[nH]c3ccccc3c2=O)cc1 [Compound 226, 4-oxo-N-(4-propylphenyl)-1H-quinoline-3-carboxamide] | – | ++ (between 25% to 100%)
10 | CC(=O)Nc1cccc(-c2ccccc2NC(=O)c2c[nH]c3ccccc3c2=O)c1 [Compound 25, N-[2-(3-acetylaminophenyl)phenyl]-4-oxo-1H-quinoline-3-carboxamide] | – | ++ (between 25% to 100%)
11 | O=C(Nc1cc(C(F)(F)F)cc(C(F)(F)F)c1)c1c[nH]c2ccccc2c1=O [Compound 154, N-[3,5-bis(trifluoromethyl)phenyl]-4-oxo-1H-quinoline-3-carboxamide] | 25 to 60 | + (<25%)
12 | CCc1cccc(NC(=O)c2c[nH]c3ccccc3c2=O)n1 [Compound 125, N-(6-ethyl-2-pyridyl)-4-oxo-1H-quinoline-3-carboxamide] | 10 to 25 | ++ (between 25% to 100%)
13 | COC(=O)NC1CCCc2ccc(NC(=O)c3c[nH]c4ccccc4c3=O)cc21 (stereo not shown) [Compound 159, [7-[(4-Oxo-1H-quinolin-3-yl)carbonylamino]tetralin-1-yl]aminoformic acid methyl ester] | 10 to 25 | ++ (between 25% to 100%)
14 | CCc1ccc(NC(=O)c2c[nH]c3ccccc3c2=O)cc1N [Compound 8, N-(3-amino-4-ethyl-phenyl)-4-oxo-1H-quinoline-3-carboxamide] | < 10 | ++ (between 25% to 100%)
15 | CCC(C)c1c[nH]c2cc(NC(=O)c3c[nH]c4ccccc4c3=O)ccc12 (stereo not shown) [Compound 259, 4-oxo-N-(3-sec-butyl-1H-indol-6-yl)-1H-quinoline-3-carboxamide] | < 10 | ++ (between 25% to 100%)
16 | CCCCOc1ccccc1NC(=O)c1c[nH]c2ccccc2c1=O [Compound 177, N-(2-butoxyphenyl)-4-oxo-1H-quinoline-3-carboxamide] | < 10 | +++ (>100%)

Other lines, results leading:

Row | EC50 [µM] | % Activity | Compound
17 | < 10 | ++ (between 25% to 100%) | CC(C)c1ccc(-c2ccccc2NC(=O)c2c[nH]c3ccccc3c2=O)cc1 [Compound 432, N-[2-(4-isopropylphenyl)phenyl]-4-oxo-1H-quinoline-3-carboxamide]
18 | < 10 | ++ (between 25% to 100%) | CC(C)(C)c1cc(F)c(NC(=O)c2c[nH]c3ccc(Cl)cc3c2=O)cc1O [Compound 561, 6-chloro-N-(2-fluoro-5-hydroxy-4-tert-butyl-phenyl)-4-oxo-1H-quinoline-3-carboxamide]
19 | < 10 | ++ (between 25% to 100%) | O=C(Nc1ccc2cc[nH]c2c1)c1cnc2ccc(F)cc2c1O [Compound 345, 6-fluoro-4-hydroxy-N-(1H-indol-6-yl)quinoline-3-carboxamide]
20 | 10 to 25 | ++ (between 25% to 100%) | CC(C)(C)c1ccc(NC(=O)c2cnc3ccccc3c2OCc2ccccc2)cc1O [Compound 275, 4-Benzyloxy-N-(3-hydroxy-4-tert-butyl-phenyl)-quinoline-3-carboxamide]
21 | < 10 | ++ (between 25% to 100%) | O=C(Nc1cc(O)c(Cl)cc1Cl)c1c[nH]c2ccccc2c1=O [Compound 608, N-(2,4-dichloro-5-hydroxy-phenyl)-4-oxo-1H-quinoline-3-carboxamide]
22 | < 10 | ++ (between 25% to 100%) | CC(C)(C)c1cc(C#N)c(NC(=O)c2c[nH]c3ccccc3c2=O)cc1O [Compound 476, N-(4-tert-Butyl-2-cyano-5-hydroxyphenyl)-1,4-dihydro-4-oxoquinoline-3-carboxamide]
23 | < 10 | ++ (between 25% to 100%) | CC(C)(C)c1ccc(O)cc1NC(=O)c1c[nH]c2ccc(F)cc2c1=O [Compound 665, 6-fluoro-N-(5-hydroxy-2-tert-butyl-phenyl)-4-oxo-1H-quinoline-3-carboxamide]
24 | < 10 | ++ (between 25% to 100%) | CNc1ccc(C(C)C)c(NC(=O)c2c[nH]c3ccccc3c2=O)c1 [Compound 399, N-(2-isopropyl-5-methylamino-phenyl)-4-oxo-1H-quinoline-3-carboxamide]
25 | 25 to 60 | + (<25%) | CSc1nc2ccccc2c(O)c1C(=O)Nc1ccc2cc[nH]c2c1 [Compound 374, 4-hydroxy-N-(1H-indol-6-yl)-2-methylsulfanyl-quinoline-3-carboxamide]
26 | – | ++ (between 25% to 100%) | CC(C)(C)c1c[nH]c2cc(NC(=O)c3c[nH]c4ccccc4c3=O)c(C(F)(F)F)cc12 [Compound 508, 4-oxo-N-[3-tert-butyl-5-(trifluoromethyl)-1H-indol-6-yl]-1H-quinoline-3-carboxamide]
27 | < 10 | ++ (between 25% to 100%) | O=C(Nc1ccccc1-c1ccccc1)c1c[nH]c2cc(C(F)(F)F)ccc2c1=O [Compound 469, 4-oxo-N-(2-phenylphenyl)-7-(trifluoromethyl)-1H-quinoline-3-carboxamide]
28 | < 10 | ++ (between 25% to 100%) | N#Cc1c[nH]c2cc(NC(=O)c3c[nH]c4ccccc4c3=O)ccc12 [Compound 339, N-(3-cyano-1H-indol-6-yl)-4-oxo-1H-quinoline-3-carboxamide]
29 | < 10 | ++ (between 25% to 100%) | CC(C)(C)c1cc(C(C)(C)C)c(C(F)F)cc1NC(=O)c1c[nH]c2ccccc2c1=O [Compound 438, N-[5-(difluoromethyl)-2,4-ditert-butyl-phenyl]-4-oxo-1H-quinoline-3-carboxamide]
30 | < 10 | + (<25%) | O=C(Nc1ccc(C(F)(F)F)cc1Cl)c1c[nH]c2ccc(F)cc2c1=O [Compound 636, N-[2-chloro-4-(trifluoromethyl)phenyl]-6-fluoro-4-oxo-1H-quinoline-3-carboxamide]
31 | < 10 | ++ (between 25% to 100%) | O=C(Nc1ccccc1)c1c[nH]c2cc(C(F)(F)F)ccc2c1=O [Compound 346, 4-oxo-N-phenyl-7-(trifluoromethyl)-1H-quinoline-3-carboxamide]
32 | < 10 | ++ (between 25% to 100%) | CC(C)(C)c1cc(C(C)(C)C)c(NC(=O)c2c[nH]c3c(F)cccc3c2=O)cc1O [Compound 687, 8-fluoro-N-(5-hydroxy-2,4-ditert-butyl-phenyl)-4-oxo-1H-quinoline-3-carboxamide]

Source: patent US8614327B2 (Vertex Pharmaceuticals Incorporated, priority 2004, dated 2013)
